Source: patent US20140371165A1, “Identification of NSC23925 Isomers to Reverse Multidrug Resistance in Human Cancers” (priority 2012, published 2014)
“Also recorded” adds a separate entry of the source. Structures can show the parent of a compound that is named as a salt.

Legend:
MCF-7adr = experiment: M30-Apoptosense ELISA apoptosis assay in MCF-7adr; assay type: cell-based, human; conditions: NSC23925b 1 μM with doxorubicin 0.5 μM, 72 hours
Method: (§1) Apoptosis was evaluated using the M30-Apoptosense ELISA assay kit (Peviva AB, Bromma, Sweden) according to the manufacturer's instructions. For the doxorubicin and NSC23925b treatment, MCF-7adr or SW480TR cells were seeded at 8,000 cells/per well in a 96-well plate for 24 hours before treatment. The cells were then treated with 0.5 μM of doxorubicin, 1 μM of NSC23925b, or a combination of the two drugs for an additional 72 hours. The cells were then lysed by an additional […] of 10% NP40 per well, following the manufacturer's instructions for apoptosis assay.
(§2) The effect of NSC23925b on the doxorubicin induction of apoptosis was assessed in MCF-7adr or SW480TR. cell lines. Cells were treated with either doxorubicin (0.5 μM) alone, NSC23925b (1 μM) alone, or a combination of doxorubicin and NSC23925b for 72 hours. Apoptosis was scored using the M30-Apoptosense ELISA assay.

H-69AR = experiment: MTT reversal of MRP1-mediated MDR in H-69AR; assay type: cell-based, human; conditions: non-Pgp expressing drug resistant cell line
[1] = Solubility in organic solvents; assay type: physicochemical
SW480TR = experiment: M30-Apoptosense ELISA apoptosis assay in SW480TR; assay type: cell-based, human; conditions: NSC23925b 1 μM with doxorubicin 0.5 μM, 72 hours
Method: as §1, §2

MDR cancer cell lines = experiment: MTT reversal of drug resistance in MDR cell lines (cell line not specified); assay type: cell-based
Text: A panel of parental cancer cell line and their daughter resistant cell lines, displaying MDR phenotype were used in this study. Human ovarian cancer cell line SKOV-3, breast cancer cell line MCF-7 and colon cancer cell line SW480, the osteosarcoma cell line U-2OS, KHOS, uterine sarcoma cell line MESSA and its doxorubicin selected drug resistant cell line MESSA/Dx5, non-small cell lung cancer cell line H-69 and its doxorubicin selected drug resistant cell line H-69AR (overexpress MRP1) were obtained from the ATCC (Rockville, Md.). Dr. Efstathios Gonos (Institute of Biological Research & Biotechnology, Athens, Greece) provided the doxorubicin resistant U-2OS R2 (referred in the text below as U-2OSDR), KHOS R2 cell lines. Dr. Erasmus Schneider (Wadsworth Center, Albany) provided the mitoxantrane resistant breast cancer MCF-7/MX (overexpress BCRP) cell line. All the cell lines were cultured in RPMI 1640 (Invitrogen, Carlsbad, Calif.) supplemented with 10% fetal bovine serum, 100-units/ml penicillin and 100 μg/ml streptomycin (Invitrogen). Cells were incubated at 37° C. in 5% CO2-95% air atmosphere and passaged when near confluent monolayers were achieved using 2% trypsin-EDTA solution. Drug-resistant cell lines were periodically cultured in the respective drug to confirm their drug resistance characteristics. The fresh chemotherapy drugs were obtained from the pharmacy at the Massachusetts General Hospital and stored at −20° C.
To evaluate for reversal of Pgp-mediated MDR, SKOV-3TR, MCF-7adr and SW480TR cell lines were seeded into 96-well tissue culture plate at 2,000 cells per well with varying concentrations of chemotherapy drugs and NSC23925b for 6 days. Cell proliferation IC50 (concentration required for 50% inhibition) and MDR reversal IC50 were determined from dose-response curves carried out in triplicate in 96-well plate. Fold of reverse resistance for individual drugs were defined as the IC50 of MDR cells without NSC23925b treatment divided by the IC50 of MDR cells treated with NSC23925b. To test for the effect of reversal of MRP1 or BCRP-mediated MDR, H-69AR or MCF-7/MX cells were placed into 96-wells and treated with chemotherapy drugs similar as described above. Drug cytotoxicity was assessed in vitro using the MTT assay as previously described. Drugs at the concentrations utilized in the MTT assay were performed in the absence of cells to verify no change in absorbance. Response curves were fitted with use of GraphPad PRISM 4 software (GraphPad Software).

[2] = Reverse Drug Resistance by NSC23925b, value = chemotherapy drug, hydrochloride

COc1ccc(-c2cc([C@H](O)[C@H]3CCCCN3)c3ccccc3n2)cc1 [NSC23925b, (2-(4-methoxyphenyl)quinolin-4-yl)(piperidin-2-yl)methanol hydrochloride]
cell death / apoptosis, combination versus either drug alone (MCF-7adr): significantly greater cell death
reversal of MRP1 mediated drug resistance (H-69AR): unable to reverse drug resistance
solubility in other solvents ([1]; either, ethyl acetate, chloroform, dichloromethane, acetone, tetrahydrofuran, cyclohexane, cyclopentane, hexanes, pentane): not soluble
solubility in methanol ([1]; methanol): soluble
5 milligram solubility in methanol ([1]; volume of methanol for 5 milligram): 450 µL
cell death / apoptosis, combination versus either drug alone (SW480TR): significantly greater cell death
effects on the drug sensitivities of cisplatin, carboplatin, toptecan and methotrexate (MDR cancer cell lines): no significant effects
Decreased Drug Resistance (drug to which NSC23925b decreased resistance) (MDR cancer cell lines; [2]): Gemcitabine; also recorded: ET-743; also recorded: Mitoxantrane; also recorded: Paclitaxel; also recorded: Docetaxel; also recorded: Doxorubicin; also recorded: Vincristine; also recorded: Daunorubicin
No Effect (drug whose resistance NSC23925b did not change) (MDR cancer cell lines; [2]): Cisplatin; also recorded: Carboplatin; also recorded: Topotecan; also recorded: Methotrexate
effect on doxorubicin-induced cell death (MTT cytotoxicity assay) (MDR cancer cell lines; combined with doxorubicin): synergistic effect
reverse MDR to paclitaxel, doxorubicin, and mitoxantrane (MDR cancer cell lines; ovarian, breast, uterine, colon, and sarcoma MDR cancer cell lines): able to reverse MDR
